Among the data in patent publication US10421779B2, “Carbazole compound having anti-virus activity” (priority 2016, dated 2019) are EC50 values, retold here.

What all share (assay type): cell-based
Test [1] concerns hepatitis C virus mutant L31V of the NS5A region. Description: Efficacy on resistant mutant L31V. As to conditions: read-out: EC50 L31V. The text has this: (§1) As a mutant resistant to hepatitis C virus, L31V and Y93H of the NS5A region, and double mutants thereof were applied.
The subject of test [2] is hepatitis C virus mutant Y93H of the NS5A region. Description: Efficacy on resistant mutant Y93H. As to conditions: read-out: EC50 Y93H.
From the text: as §1

The subject of test [3] is hepatitis C virus double mutant L31V and Y93H of the NS5A region. Description: Efficacy on resistant double mutant (L31V and Y93H). As to conditions: read-out: EC50 Double mutant.
From the text: as §1

In test [4] the test system is HCV genotype 1 b (HCV replicon system). Description: HCV replicon system genotype 1b, Renilla luciferase activity. The note with it: Hepatitis C virus, 72 h; HCV genotype 1b replicon, Rluc, 3 days; read-out: Replicon EC50 1b type. The gist of the method:
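Genotype 1b replicon carrying Renilla luciferase and 1b non-structural genes, treated with compound at various concentrations. Luciferase activity read after 3 days relative to control to derive EC50.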
In general terms: In antiviral work, replicon cells carry a viral genome segment that copies itself.

The test system of test [5] is HCV genotype 2a (HCV cell culture system, HCVcc). In words: HCVcc genotype 2a JFH1 (JFH 5a-Rluc) virus in Huh7.5.1 cells, luciferase assay. As to conditions: Hepatitis C virus, Huh-7.5.1, 72 h, HCV genotype 2a JFH 5a-Rluc, 3 days, read-out: Replicon EC50 2a type. As to the method: (§2) From human liver cells (Huh7.5.1 cell) infected by hepatitis C virus, the anti-virus effects by the compound of the present invention were measured. From HCV genotype 1 b (HCV replicon system), genotype 2a (HCV cell culture system, HCVcc), and genotype 3a, the EC50 values were measured.
In order to measure the EC50 value from HCV genotype 2a, a luciferase assay was used. A JFH1 clone (JFH 5a-Rluc) virus constructed to have a Renilla luciferase enzyme (Rluc) gene in NS5A protein was infected with Huh7.5.1 cell being a host cell, and then the EC50 value was measured by taking cells grown for 3 days by treating the experimental compound under various concentration conditions, and analyzing the activity degree of the luciferase.

The test system of test [6] is HCV genotype 3a (HCV replicon system). In words: HCV replicon system genotype 3a, firefly luciferase activity. The note with it: Hepatitis C virus, 72 h; HCV genotype 3a replicon, Fluc, 3 days; read-out: Replicon EC50 3a type. As for the experimental part: as §2
In order to measure the EC50 value from genotype 3a, the value was measured through the luciferase activity. A HCV replicon system having firefly luciferase (Fluc) genes and genotype 3a non-structure genes was used. The HCV replicon system having the genes as described above was used to treat the experimental compound under various concentration conditions, and then 3 days later, the EC50 value was measured by comparing the luciferase activity with that of the control.

In the case of `COC(=O)N[C@H](C(=O)N1CCC[C@H]1c1nc(-c2ccc(-c3ccc(-c4c[nH]c([C@@H]5CCCN5C(=O)[C@@H](NC(=O)OC)C(C)C)n4)cc3)cc2)c[nH]1)C(C)C` [BMS-790052, reference compound], the EC50 (in general, the concentration giving half of the maximal effect) in test [1] is 0.1 to 1 nM; in test [2], 1 to 10 nM; in test [3] it was greater than 1000 nM.

As to `COC(=O)N[C@@H](C(=O)N1CCC[C@H]1C(=O)Nc1ccc2c3ccc(NC(=O)[C@@H]4CCCN4C(=O)[C@H](NC(=O)OC)c4ccccc4)cc3n(Cc3ccccc3)c2c1)c1ccccc1` [Example 13, dimethyl ((1R,1′R)-((2S,2′S)-(((9-benzyl-9H-carbazole-2,7-diyl)bis(azanediyl))bis(carbonyl))bis(pyrrolidine-2,1-diyl))bis(2-oxo-1-phenylethane-2,1-diyl))dicarbamate], the EC50 in test [4] is 0.0246 nM; in test [1] it was 0.1 to 1 nM; in test [2], 100 to 1000 nM; in test [3], greater than 1000 nM.

With `COC(=O)N[C@@H](C(=O)N1CCC[C@H]1C(=O)Nc1ccc2c3ccc(NC(=O)[C@@H]4CCCN4C(=O)[C@H](NC(=O)OC)c4ccccc4)cc3n(Cc3ccc(OC)cc3)c2c1)c1ccccc1` [Example 14, dimethyl ((1R,1′R)-((2S,2′S)-(((9-(4-methoxybenzyl)-9H-carbazole-2,7-diyl)bis(azanediyl))bis(carbonyl))bis(pyrrolidine-2,1-diyl))bis(2-oxo-1-phenylethane-2,1-diyl))dicarbamate], the concentration giving a half-maximal response (EC50) in test [4] was 0.0203 nM; in test [1] it was 0.1 to 1 nM; in test [2], 100 to 1000 nM; in test [3], greater than 1000 nM.

`COC(=O)N[C@@H](C(=O)N1CCC[C@H]1C(=O)Nc1ccc2c3ccc(NC(=O)[C@@H]4CCCN4C(=O)[C@H](NC(=O)OC)c4ccccc4)cc3n(C(C)c3ccccc3)c2c1)c1ccccc1` (stereo partly drawn) [Example 15, dimethyl ((1R,1′R)-((2S,2′S)-(((9-(1-phenylethyl)-9H-carbazole-2,7-diyl)bis(azanediyl))bis(carbonyl))bis(pyrrolidine-2,1-diyl))bis(2-oxo-1-phenylethane-2,1-diyl))dicarbamate]: the EC50 in test [4] is 0.0157 nM; in test [1] it was less than 0.1 nM; in test [2] it was 10 to 100 nM; in test [3], greater than 1000 nM.

Take `CCCCCCCCn1c2cc(NC(=O)[C@@H]3CCCN3C(=O)[C@H](NC(=O)OC)c3ccccc3)ccc2c2ccc(NC(=O)[C@@H]3CCCN3C(=O)[C@H](NC(=O)OC)c3ccccc3)cc21` [Example 26, dimethyl ((1R,1′R)-((2S,2′S)-(((9-octyl-9H-carbazole-2,7-diyl)bis(azanediyl))bis(carbonyl))bis(pyrrolidine-2,1-diyl))bis(2-oxo-1-phenylethane-2,1-diyl))dicarbamate]: the values for the EC50 in test [4], in test [5] and in test [1] were 0.00792 nM, 10 to 100 nM and 1 to 10 nM, respectively.

In the case of `CCCCCCCCCCCCn1c2cc(NC(=O)[C@@H]3CCCN3C(=O)[C@H](NC(=O)OC)c3ccccc3)ccc2c2ccc(NC(=O)[C@@H]3CCCN3C(=O)[C@H](NC(=O)OC)c3ccccc3)cc21` [Example 27, dimethyl ((1R,1′R)-((2S,2′S)-(((9-dodecyl-9H-carbazole-2,7-diyl)bis(azanediyl))bis(carbonyl))bis(pyrrolidine-2,1-diyl))bis(2-oxo-1-phenylethane-2,1-diyl))dicarbamate], the results for the EC50 in test [4], in test [5] and in test [1] were 0.00185 nM, 10 to 100 nM and 0.1 to 1 nM, respectively.

Turning to `CCCC(c1ccccc1)n1c2cc(NC(=O)[C@@H]3CCCN3C(=O)[C@H](NC(=O)OC)c3ccccc3)ccc2c2ccc(NC(=O)[C@@H]3CCCN3C(=O)[C@H](NC(=O)OC)c3ccccc3)cc21` (stereo partly drawn) [Example 28, dimethyl ((1R,1′R)-((2S,2′S)-(((9-(1-phenylbutyl)-9H-carbazole-2,7-diyl)bis(azanediyl))bis(carbonyl))bis(pyrrolidine-2,1-diyl))bis(2-oxo-1-phenylethane-2,1-diyl))dicarbamate], the EC50 in test [4] is 0.00452 nM; in test [5], 1 to 10 nM; in test [1], less than 0.1 nM.

As for `CCCCCCOc1ccc(Cn2c3cc(NC(=O)[C@@H]4CCCN4C(=O)[C@H](NC(=O)OC)c4ccccc4)ccc3c3ccc(NC(=O)[C@@H]4CCCN4C(=O)[C@H](NC(=O)OC)c4ccccc4)cc32)cc1` [Example 31, dimethyl ((1R,1′R)-((2S,2′S)-(((9-(4-(hexyloxy)benzyl)-9H-carbonyl-2,7-diyl)bis(azanediyl))bis(carbonyl))bis(pyrrolidine-2,1-diyl))bis(2-oxo-1-phenylethane-2,1-diyl))dicarbamate], the EC50 is roughly 0.01 nM in test [4]; 1 to 10 nM in test [5]; roughly 0.01 nM in test [6]; less than 0.1 nM in test [1]; 10 to 100 nM in test [2].

Turning to `COC(=O)N[C@@H](C(=O)N1CCC[C@H]1C(=O)Nc1ccc2c3ccc(NC(=O)[C@@H]4CCCN4C(=O)[C@H](NC(=O)OC)c4ccccc4)cc3n(CCCCCCCCCCN3CCOCC3)c2c1)c1ccccc1` [Example 34, dimethyl ((1R,1′R)-((2S,2′S)-(((9-(10-morpholinodecyl)-9H-carbazole-2,7-diyl)bis(azanediyl))bis(carbonyl))bis(pyrrolidine-2,1-diyl))bis(2-oxo-1-phenylethane-2,1-diyl))carbamate], the EC50 was 0.01 to 0.1 nM in test [4]; 1 to 10 nM in test [5]; 0.01 to 0.1 nM in test [6]; less than 0.1 nM in test [1]; 100 to 1000 nM in test [2].

Consider `CCCCOc1ccc(Cn2c3cc(NC(=O)[C@@H]4CCCN4C(=O)[C@H](NC(=O)OC)c4ccccc4)ccc3c3ccc(NC(=O)[C@@H]4CCCN4C(=O)[C@H](NC(=O)OC)c4ccccc4)cc32)cc1` [Example 36, dimethyl ((1R,1′R)-((2S,2′S)-(((9-(4-butoxybenzyl)-9H-carbazole-2,7-diyl)bis(azanediyl))bis(carbonyl))bis(pyrrolidine-2,1-diyl))bis(2-oxo-1-phenylethane-2,1-diyl))dicarbamate], for which the EC50 is 0.00326 nM in test [4], 0.0126 nM in test [6], 0.1 to 1 nM in test [1] and 100 to 1000 nM in test [2].

Consider `COC(=O)N[C@@H](C(=O)N1CCC[C@H]1C(=O)Nc1ccc2c3ccc(NC(=O)[C@@H]4CCCN4C(=O)[C@H](NC(=O)OC)c4ccccc4)cc3n(Cc3cccc(OC4CCCC4)c3)c2c1)c1ccccc1` [Example 39, dimethyl ((1R,1′R)-((2S,2′S)-(((9-(3-(cyclopentyloxy)benzyl)-9H-carbazole-2,7-diyl)bis(azanediyl))bis(carbonyl))bis(pyrrolidine-2,1-diyl))bis(2-oxo-1-phenylethane-2,1-diyl))dicarbamate], for which the EC50 was 0.00113 nM in test [4], 0.00638 nM in test [6], 0.1 to 1 nM in test [1] and 100 to 1000 nM in test [2].

For `COCCOc1cccc(Cn2c3cc(NC(=O)[C@@H]4CCCN4C(=O)[C@H](NC(=O)OC)c4ccccc4)ccc3c3ccc(NC(=O)[C@@H]4CCCN4C(=O)[C@H](NC(=O)OC)c4ccccc4)cc32)c1` [Example 41, dimethyl ((1R,1′R)-((2S,2′S)-(((9-(3-(2-methoxyethoxy)benzyl)-9H-carbazole-2,7-diyl)bis(azanediyl))bis(carbonyl))bis(pyrrolidine-2,1-diyl))bis(2-oxo-1-phenylethane-2,1-diyl))dicarbamate], the EC50 in test [4] was 0.00965 nM; in test [6], 0.0419 nM; in test [1] it was 0.1 to 1 nM; in test [2], greater than 1000 nM.

Consider `CCCCCCCCCC(c1ccccc1)n1c2cc(NC(=O)[C@@H]3CCCN3C(=O)[C@H](NC(=O)OC)c3ccccc3)ccc2c2ccc(NC(=O)[C@@H]3CCCN3C(=O)[C@H](NC(=O)OC)c3ccccc3)cc21` (stereo partly drawn) [Example 42, dimethyl ((1R,1′R)-((2S,2′S)-(((9-(1-phenyldecyl)-9H-carbazole-2,7-diyl)bis(azanediyl))bis(carbonyl))bis(pyrrolidine-2,1-diyl))bis(2-oxo-1-phenylethane-2,1-diyl))dicarbamate], for which the EC50 in test [4] was 0.00124 nM; in test [5], 10 to 100 nM; in test [6] it was 0.0329 nM; in test [1] it was 0.1 to 1 nM; in test [2] it was 100 to 1000 nM.

With `CCCCn1c2cc(NC(=O)[C@@H]3CCCN3C(=O)[C@H](NC(=O)OC)c3ccccc3)ccc2c2ccc(-c3c[nH]c([C@@H]4CCCN4C(=O)[C@@H](NC(=O)OC)C(C)C)n3)cc21` [Example 52, methyl ((R)-2-((S)-2-((9-butyl-7-(2-((S)-1-((methoxycarbonyl)-L-valyl)pyrrolidine-2-yl)-1H-imidazole-4-yl)-9H-carbazole-2-yl)carbamoyl)pyrrolidine-1-yl)-2-oxo-1-phenylethyl)carbamate], the EC50 is 0.0123 nM in test [4], 0.171 nM in test [5] and 0.148 nM in test [6].
